Assays:
Assay in all cases: Test E greenhouse herbicide test, pre- and postemergence
Format in all cases: in vivo
Conditions in all cases: Preemergence
[1] = test system: surinam grass (Brachiaria decumbens)
Procedure, shortened: (§1)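 Seedlings reaching 2–18 cm (1- to 4-leaf stage) received foliar treatment, while seeds in silt loam received a soil surface spray; the vehicle in each case was a non-phytotoxic solvent mixture including surfactant. Visual scoring versus controls followed 14–21 d later on a 0–100 scale.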

[2] = test system: nutsedge, yellow (yellow nutsedge, Cyperus esculentus)
Procedure, shortened: as §1

[3] = test system: panicum, fall (fall panicum, Panicum dichotomiflorum)
Procedure, shortened: as §1

[4] = test system: beggarticks (hairy beggarticks, Bidens pilosa)
Procedure, shortened: as §1

[5] = test system: sandbur (southem sandbur, Cenchrus echinatus)
Procedure, shortened: as §1

[6] = test system: barnyardgrass (Echinochloa crus-galli)
Procedure, shortened: as §1

[7] = test system: goosegrass (Eleusine indica)
Procedure, shortened: as §1

[8] = test system: johnsongrass (Sorghum halepense)
Procedure, shortened: as §1

[9] = test system: crabgrass, large (large crabgrass, Digitaria sanguinalis)
Procedure, shortened: as §1

[10] = test system: arrowleaf sida (Sida rhombifolia)
Procedure, shortened: as §1

[11] = test system: momingglory (Ipomoea coccinea)
Procedure, shortened: as §1

kochia (Kochia scoparia) = test system: kochia (Kochia scoparia)
Procedure, shortened: as §1

[12] = test system: velvetleaf (Abutilon theophrasti)
Procedure, shortened: as §1

[13] = test system: field bindweed (Convolvulus arvensis)
Procedure, shortened: as §1

[14] = test system: nightshade (eastern black nightshade, Solanum ptycanthum)
Procedure, shortened: as §1

[15] = test system: ragweed (common ragweed, Ambrosia elatior)
Procedure, shortened: as §1

[16] = test system: foxtail, giant (giant foxtail, Setaria faberii)
Procedure, shortened: as §1

[17] = 62 g ai/ha, scale 0 to 100 (0 no effect, 100 complete control)
[18] = 125 g ai/ha, scale 0 to 100 (0 no effect, 100 complete control)
[19] = 16 g ai/ha, scale 0 to 100, 0 no effect, 100 complete control
[20] = 31 g ai/ha, scale 0 to 100, 0 no effect, 100 complete control

COC(=O)Oc1c(C)nn(C)c(=O)c1-c1c(C)sc2ccc(C)cc12 [Compound 80]
Plant response rating, Surinam Grass [1, 17]: 20
Plant response rating, Surinam Grass [1, 18]: 75
Plant response rating, Surinam Grass [1, 19]: 0
Plant response rating, Surinam Grass [1, 20]: 10
Plant response rating, Nutsedge, Yellow [2, 17]: 40
Plant response rating, Nutsedge, Yellow [2, 18]: 35
Plant response rating, Nutsedge, Yellow [2, 19]: 5
Plant response rating, Nutsedge, Yellow [2, 20]: 10
Plant response rating, Panicum, Fall [3, 17]: 95
Plant response rating, Panicum, Fall [3, 18]: 98
Plant response rating, Panicum, Fall [3, 19]: 80
Plant response rating, Panicum, Fall [3, 20]: 90
Plant response rating, Beggarticks [4, 17]: 100
Plant response rating, Beggarticks [4, 18]: 100
Plant response rating, Beggarticks [4, 19]: 100
Plant response rating, Beggarticks [4, 20]: 85
Plant response rating, Sandbur [5, 17]: 70
Plant response rating, Sandbur [5, 18]: 75
Plant response rating, Sandbur [5, 19]: 0
Plant response rating, Sandbur [5, 20]: 65
Plant response rating, Barnyardgrass [6, 17]: 20
Plant response rating, Barnyardgrass [6, 18]: 20
Plant response rating, Barnyardgrass [6, 19]: 0
Plant response rating, Barnyardgrass [6, 20]: 0
Plant response rating, Goosegrass [7, 17]: 30
Plant response rating, Goosegrass [7, 18]: 20
Plant response rating, Goosegrass [7, 19]: 0
Plant response rating, Goosegrass [7, 20]: 0
Plant response rating, Johnsongrass [8, 17]: 80
Plant response rating, Johnsongrass [8, 18]: 80
Plant response rating, Johnsongrass [8, 20]: 0
Plant response rating, Crabgrass, Large [9, 17]: 35
Plant response rating, Crabgrass, Large [9, 18]: 35
Plant response rating, Crabgrass, Large [9, 19]: 0
Plant response rating, Crabgrass, Large [9, 20]: 0
Plant response rating, Arrowleaf Sida [10, 17]: 35
Plant response rating, Arrowleaf Sida [10, 18]: 25
Plant response rating, Arrowleaf Sida [10, 19]: 0
Plant response rating, Arrowleaf Sida [10, 20]: 0
Plant response rating, Morningglory [11, 17]: 70
Plant response rating, Morningglory [11, 18]: 75
Plant response rating, Morningglory [11, 19]: 0
Plant response rating, Morningglory [11, 20]: 65
Plant response rating, Kochia (kochia (Kochia scoparia); [17]): 100
Plant response rating, Kochia (kochia (Kochia scoparia); [18]): 100
Plant response rating, Kochia (kochia (Kochia scoparia); [19]): 25
Plant response rating, Kochia (kochia (Kochia scoparia); [20]): 90
Plant response rating, Velvetleaf [12, 17]: 70
Plant response rating, Velvetleaf [12, 18]: 90
Plant response rating, Velvetleaf [12, 19]: 0
Plant response rating, Velvetleaf [12, 20]: 20
Plant response rating, Field Bindweed [13, 17]: 70
Plant response rating, Field Bindweed [13, 18]: 100
Plant response rating, Field Bindweed [13, 19]: 20
Plant response rating, Field Bindweed [13, 20]: 25
Plant response rating, Nightshade [14, 17]: 100
Plant response rating, Nightshade [14, 18]: 98
Plant response rating, Nightshade [14, 19]: 75
Plant response rating, Nightshade [14, 20]: 75
Plant response rating, Ragweed [15, 17]: 100
Plant response rating, Ragweed [15, 18]: 100
Plant response rating, Ragweed [15, 19]: 70
Plant response rating, Ragweed [15, 20]: 70
Plant response rating, Foxtail, Giant [16, 17]: 80
Plant response rating, Foxtail, Giant [16, 18]: 85
Plant response rating, Foxtail, Giant [16, 19]: 0
Plant response rating, Foxtail, Giant [16, 20]: 50
